Tests used:
[1] = system: purple nutsedge; experiment: Test B pre/postemergence purple nutsedge; assay type: in vivo, Cyperus rotundus
Summary of the method: (§1)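 Herbicidal effect was estimated by eye on a ten-point control scale after plants spent twelve to sixteen days in a greenhouse following soil or foliar treatment. Foliar sprays targeted plants at one to four leaves; all doses were formulated in a non-phytotoxic solvent with surfactant.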

[2] = system: cocklebur; experiment: Test B pre/postemergence cocklebur; assay type: in vivo, Xanthium strumarium
Summary of the method: as §1

[3] = system: corn; experiment: Test B pre/postemergence corn; assay type: in vivo, Zea mays
Summary of the method: as §1

[4] = system: blackgrass; experiment: Test B pre/postemergence blackgrass; assay type: in vivo, Alopecurus myosuroides
Summary of the method: as §1

[5] = system: giant foxtail; experiment: Test B pre/postemergence giant foxtail; assay type: in vivo, Setaria faberii
Summary of the method: as §1

[6] = system: bamyardgrass; experiment: Test B flood test barnyardgrass; assay type: in vivo, Echinochloa crus-galli; conditions: Pre-emergence
Summary of the method: (§2)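 Flood test on plants grown to the 2-leaf stage; treated plants kept in greenhouse twelve to sixteen days, then visually rated against controls on a 0 (no effect) to 10 (complete control) scale.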

[7] = system: duck salad; experiment: Test B flood test duck salad; assay type: in vivo, Heteranthera limosa; conditions: Pre-emergence
Summary of the method: as §2

[8] = system: smallflower flatsedge; experiment: Test B flood test smallflower flatsedge; assay type: in vivo, Cyperus difformis; conditions: Pre-emergence
Summary of the method: as §2

[9] = system: surinam grass; experiment: Test B pre/postemergence surinam grass; assay type: in vivo, Brachiaria decumbens
Summary of the method: as §1

[10] = system: soybean; experiment: Test B pre/postemergence soybean; assay type: in vivo, Glycine max
Summary of the method: as §1

[11] = system: bedstraw; experiment: Test B pre/postemergence bedstraw; assay type: in vivo, Galium aparine
Summary of the method: as §1

[12] = system: rape; experiment: Test B pre/postemergence rape; assay type: in vivo, Brassica napus
Summary of the method: as §1

[13] = system: velvetleaf; experiment: Test B pre/postemergence velvetleaf; assay type: in vivo, Abutilon theophrasti
Summary of the method: as §1

[14] = system: morningglory; experiment: Test B pre/postemergence morningglory; assay type: in vivo, Ipomoea hederacea
Summary of the method: as §1

[15] = system: pigweed; experiment: Test B pre/postemergence pigweed; assay type: in vivo, Amaranthus retroflexus
Summary of the method: as §1

[16] = system: sugar beet; experiment: Test B pre/postemergence sugar beet; assay type: in vivo, Beta vulgaris
Summary of the method: as §1

[17] = Preemergence, Rate 62 g/ha, scale of 0 to 10 where 0 is no effect and 10 is complete control
[18] = Preemergence, Rate 250 g/ha, scale of 0 to 10 where 0 is no effect and 10 is complete control
[19] = Preemergence, Rate 500 g/ha, scale of 0 to 10 where 0 is no effect and 10 is complete control
[20] = Rate 62 g/ha, Postemergence, scale 0 to 10 (0 no effect, 10 complete control)
[21] = Rate 125 g/ha, Postemergence, scale of 0 to 10 where 0 is no effect and 10 is complete control
[22] = Rate 250 g/ha, Postemergence, scale of 0 to 10 where 0 is no effect and 10 is complete control
[23] = Rate 500 g/ha, Postemergence, scale 0 to 10, 0 no effect, 10 complete control
[24] = Rate 1000 g/ha, scale 0 to 10 (0 no effect, 10 complete control)
[25] = Rate 125 g/ha, flood test species, scale 0 to 10 where 0 is no effect and 10 is complete control
[26] = Rate 250 g/ha, flood-test species, scale 0 to 10, 0 is no effect, 10 is complete control
[27] = Rate 500 g/ha, flood test species, scale 0 to 10 (0 no effect, 10 complete control)

SMILES: CCN(C(=O)n1oc(=O)n(C2CCCCC2)c1=O)C1CCCCC1 [Compound 308]
- Nutsedge plant response rating [1, 17]: 0
- Nutsedge plant response rating (0 to 10 scale) ([1]; Preemergence, Rate 125 g/ha): 0
- Nutsedge plant response rating [1, 18]: 0
- Nutsedge plant response rating [1, 19]: 0
- Nutsedge plant response rating [1, 20]: 0
- Nutsedge plant response rating [1, 21]: 0
- Plant response rating, Nutsedge [1, 22]: 0
- Cocklebur plant response rating [2, 17]: 0
- Cocklebur plant response rating (0 to 10 scale) ([2]; Preemergence, Rate 125 g/ha): 0
- Cocklebur plant response rating [2, 18]: 0
- Cocklebur plant response rating [2, 19]: 0
- Cocklebur plant response rating [2, 20]: 0
- Cocklebur plant response rating [2, 21]: 0
- Plant response rating, Cocklebur [2, 22]: 0
- Cocklebur plant response rating [2, 23]: 0
- Corn plant response rating [3, 17]: 0
- Corn plant response rating (0 to 10 scale) ([3]; Preemergence, Rate 125 g/ha): 0
- Corn plant response rating [3, 18]: 0
- Corn plant response rating [3, 19]: 0
- Corn plant response rating [3, 20]: 0
- Corn plant response rating [3, 21]: 0
- Plant response rating, Corn [3, 22]: 0
- Corn plant response rating [3, 23]: 0
- Blackgrass plant response rating [4, 17]: 0
- Blackgrass plant response rating (0 to 10 scale) ([4]; Preemergence, Rate 125 g/ha): 0
- Blackgrass plant response rating [4, 18]: 0
- Blackgrass plant response rating [4, 19]: 0
- Blackgrass plant response rating [4, 20]: 0
- Blackgrass plant response rating [4, 21]: 0
- Plant response rating, Blackgrass [4, 22]: 0
- Blackgrass plant response rating [4, 23]: 0
- Giant foxtail plant response rating [5, 17]: 0
- Giant foxtail plant response rating (0 to 10 scale) ([5]; Preemergence, Rate 125 g/ha): 0
- Giant foxtail plant response rating [5, 18]: 0
- Giant foxtail plant response rating [5, 19]: 0
- Giant foxtail plant response rating [5, 20]: 0
- Giant foxtail plant response rating [5, 21]: 0
- Plant response rating, Giant foxtail [5, 22]: 0
- Barnyardgrass plant response rating [6, 24]: 0
- Barnyardgrass plant response rating [6, 25]: 0
- Barnyardgrass plant response rating [6, 26]: 0
- Barnyardgrass plant response rating [6, 27]: 0
- Ducksalad plant response rating [7, 24]: 0
- Ducksalad plant response rating [7, 25]: 0
- Ducksalad plant response rating [7, 26]: 0
- Ducksalad plant response rating [7, 27]: 0
- S. Flatsedge plant response rating [8, 24]: 0
- S. Flatsedge plant response rating [8, 25]: 0
- S. Flatsedge plant response rating [8, 26]: 0
- S. Flatsedge plant response rating [8, 27]: 0
- B. signalgrass plant response rating [9, 17]: 0
- B. signalgrass plant response rating (0 to 10 scale, 0 is no effect, 10 is complete control) ([9]; Preemergence, Rate 125 g/ha): 0
- B. signalgrass plant response rating [9, 18]: 0
- B. signalgrass plant response rating [9, 19]: 0
- B. signalgrass plant response rating [9, 20]: 0
- B. signalgrass plant response rating [9, 21]: 0
- Plant response rating, B. signalgrass [9, 22]: 0
- B. signalgrass plant response rating [9, 23]: 0
- Soybean plant response rating [10, 17]: 0
- Soybean plant response rating (0 to 10 scale) ([10]; Preemergence, Rate 125 g/ha): 0
- Soybean plant response rating [10, 18]: 0
- Soybean plant response rating [10, 19]: 0
- Soybean plant response rating [10, 20]: 1
- Soybean plant response rating [10, 21]: 1
- Plant response rating, Soybean [10, 22]: 1
- Bedstraw plant response rating [11, 17]: 0
- Bedstraw plant response rating (0 to 10 scale) ([11]; Preemergence, Rate 125 g/ha): 0
- Bedstraw plant response rating [11, 18]: 0
- Bedstraw plant response rating [11, 19]: 0
- Bedstraw plant response rating [11, 20]: 0
- Bedstraw plant response rating [11, 21]: 0
- Plant response rating, Bedstraw [11, 22]: 0
- Bedstraw plant response rating [11, 23]: 0
- Rape plant response rating [12, 17]: 0
- Rape plant response rating (0 to 10 scale) ([12]; Preemergence, Rate 125 g/ha): 0
- Rape plant response rating [12, 18]: 0
- Rape plant response rating [12, 19]: 0
- Rape plant response rating [12, 20]: 0
- Rape plant response rating [12, 21]: 0
- Plant response rating, Rape [12, 22]: 0
- Velvetleaf plant response rating [13, 17]: 0
- Velvetleaf plant response rating (0 to 10 scale) ([13]; Preemergence, Rate 125 g/ha): 0
- Velvetleaf plant response rating [13, 18]: 0
- Velvetleaf plant response rating [13, 19]: 0
- Velvetleaf plant response rating [13, 20]: 0
- Velvetleaf plant response rating [13, 21]: 0
- Plant response rating, Velvetleaf [13, 22]: 0
- Morningglory plant response rating [14, 17]: 0
- Morningglory plant response rating (0 to 10 scale) ([14]; Preemergence, Rate 125 g/ha): 0
- Morningglory plant response rating [14, 18]: 0
- Morningglory plant response rating [14, 19]: 0
- Morningglory plant response rating [14, 20]: 0
- Morningglory plant response rating [14, 21]: 0
- Plant response rating, Morningglory [14, 22]: 2
- Redroot pigweed plant response rating [15, 17]: 0
- Redroot pigweed plant response rating (0 to 10 scale) ([15]; Preemergence, Rate 125 g/ha): 0
- Redroot pigweed plant response rating [15, 18]: 0
- Redroot pigweed plant response rating [15, 19]: 0
- Redroot pigweed plant response rating [15, 20]: 0
- Redroot pigweed plant response rating [15, 21]: 0
- Plant response rating, Redroot pigweed [15, 22]: 0
- Sugarbeets plant response rating [16, 17]: 0
- Sugarbeets plant response rating (0 to 10 scale) ([16]; Preemergence, Rate 125 g/ha): 0
- Sugarbeets plant response rating [16, 18]: 0
- Sugarbeets plant response rating [16, 19]: 0
- Sugarbeets plant response rating [16, 20]: 0
- Sugarbeets plant response rating [16, 21]: 0
- Plant response rating, Sugarbeets [16, 22]: 0
